{"source": "patent US9994546B2", "about": "“Cyclopropylamines as LSD1 inhibitors” (Incyte Corporation, priority 2014, dated 2018)"}
{"biological_target": "LSD-1 enzyme (Homo sapiens (Human), UniProt O60341)", "test": "LANCE LSD1/KDM1A demethylase assay (LSD1 histone demethylase biochemical assay)", "settings": "1 nM LSD-1 enzyme, 1 hour preincubation at 25° C., 0.4 μM biotin-labeled Histone H3 peptide substrate", "experimental": "LANCE LSD1/KDM1A demethylase assay—10 μL of 1 nM LSD-1 enzyme (ENZO BML-SE544-0050) in the assay buffer (50 mM Tris, pH 7.5, 0.01% Tween-20, 25 mM NaCl, 5 mM DTT) were preincubated for 1 hour at 25° C. with 0.8 μL compound/DMSO dotted in black 384 well polystyrene plates. […] After stopping the reactions plates were incubated for 30 minutes and read on a PHERAstar FS plate reader (BMG Labtech).", "units": {"IC50": "nM"}}
{"smiles": "N#CCC1(N2CCC(N[C@@H]3C[C@H]3c3ccccc3)CC2)CN(CC(N)=O)C1", "note": "[Example 79, 2-[3-(cyanomethyl)-3-(4-{[(1R,2S)-2-phenylcyclopropyl]amino}piperidin-1-yl)azetidin-1-yl]acetamide]", "IC50": "≤ 100"}
{"smiles": "Cn1cc(C(=O)N2CC(CC#N)(N3CCC(N[C@@H]4C[C@H]4c4ccccc4)CC3)C2)cn1", "note": "[Example 80, [1-[(1-methyl-1H-pyrazol-4-yl)carbonyl]-3-(4-{[(1R,2S)-2-phenylcyclopropyl]amino}piperidin-1-yl)azetidin-3-yl]acetonitrile]", "IC50": "≤ 100"}
{"smiles": "Cn1nccc1C(=O)N1CC(CC#N)(N2CCC(N[C@@H]3C[C@H]3c3ccccc3)CC2)C1", "note": "[Example 81, [1-[(1-methyl-1H-pyrazol-5-yl)carbonyl]-3-(4-{[(1R,2S)-2-phenylcyclopropyl]amino}piperidin-1-yl)azetidin-3-yl]acetonitrile]", "IC50": "≤ 100"}
{"smiles": "N#CCC1(N2CCC(N[C@@H]3C[C@H]3c3ccccc3)CC2)CN(C(=O)[C@H]2CC[C@H](O)CC2)C1", "note": "[Example 82, [1-[(trans-4-hydroxycyclohexyl)carbonyl]-3-(4-{[(1R,2S)-2-phenylcyclopropyl]amino}piperidin-1-yl)azetidin-3-yl]acetonitrile]", "IC50": "≤ 100"}
{"smiles": "N#CCC1(N2CCC(N[C@@H]3C[C@H]3c3ccccc3)CC2)CN(C(=O)[C@H]2CC[C@@H](O)CC2)C1", "note": "[Example 83, [1-[(cis-4-hydroxycyclohexyl)carbonyl]-3-(4-{[(1R,2S)-2-phenylcyclopropyl]amino}piperidin-1-yl)azetidin-3-yl]acetonitrile]", "IC50": "≤ 100"}
{"smiles": "N#CCC1(N2CCC(N[C@@H]3C[C@H]3c3ccccc3)CC2)CN(C(=O)C2(O)CC2)C1", "note": "[Example 84, [1-[(1-hydroxycyclopropyl)carbonyl]-3-(4-{[(1R,2S)-2-phenylcyclopropyl]amino}piperidin-1-yl)azetidin-3-yl]acetonitrile]", "IC50": "≤ 100"}
{"smiles": "N#CCC1(N2CCC(N[C@@H]3C[C@H]3c3ccccc3)CC2)CN(C(=O)C2(O)CCCC2)C1", "note": "[Example 85, [1-[(1-hydroxycyclopentyl)carbonyl]-3-(4-{[(1R,2S)-2-phenylcyclopropyl]amino}piperidin-1-yl)azetidin-3-yl]acetonitrile]", "IC50": "≤ 100"}
{"smiles": "N#CCC1(N2CCC(N[C@@H]3C[C@H]3c3ccccc3)CC2)CN(C(=O)N2CCOCC2)C1", "note": "[Example 86, [1-(morpholin-4-ylcarbonyl)-3-(4-{[(1R,2S)-2-phenylcyclopropyl]amino}piperidin-1-yl)azetidin-3-yl]acetonitrile]", "IC50": "≤ 100"}
{"smiles": "N#CCC1(N2CCC(N[C@@H]3C[C@H]3c3ccccc3)CC2)CN(C(=O)N2CCC(O)CC2)C1", "note": "[Example 87, [1-[(4-hydroxypiperidin-1-yl)carbonyl]-3-(4-{[(1R,2S)-2-phenylcyclopropyl]amino}piperidin-1-yl)azetidin-3-yl]acetonitrile]", "IC50": "≤ 100"}
{"smiles": "COC1CCN(C(=O)N2CC(CC#N)(N3CCC(N[C@@H]4C[C@H]4c4ccccc4)CC3)C2)CC1", "note": "[Example 88, [1-[(4-methoxypiperidin-1-yl)carbonyl]-3-(4-{[(1R,2S)-2-phenylcyclopropyl]amino}piperidin-1-yl)azetidin-3-yl]acetonitrile]", "IC50": "≤ 100"}
{"smiles": "N#CCC1(N2CCC(N[C@@H]3C[C@H]3c3ccccc3)CC2)CN(C(=O)N2CC(O)C2)C1", "note": "[Example 89, [1-[(3-hydroxyazetidin-1-yl)carbonyl]-3-(4-{[(1R,2S)-2-phenylcyclopropyl]amino}piperidin-1-yl)azetidin-3-yl]acetonitrile]", "IC50": "≤ 100"}
{"smiles": "CN(C)C(=O)CC1(N2CCC(N[C@@H]3C[C@H]3c3ccccc3)CC2)CN(S(C)(=O)=O)C1", "note": "[Example 90, N,N-dimethyl-2-(1-(methylsulfonyl)-3-(4-(((1R,2S)-2-phenylcyclopropyl)amino)piperidin-1-yl)azetidin-3-yl)acetamide]", "IC50": "≤ 100"}
{"smiles": "CNC(=O)CC1(N2CCC(N[C@@H]3C[C@H]3c3ccccc3)CC2)CN(S(C)(=O)=O)C1", "note": "[Example 91, N-methyl-2-[1-(methylsulfonyl)-3-(4-{[(1R,2S)-2-phenylcyclopropyl]amino}piperidin-1-yl)azetidin-3-yl]acetamide]", "IC50": "≤ 100"}
{"smiles": "CCS(=O)(=O)N1CC(CCO)(N2CCC(N[C@@H]3C[C@H]3c3ccccc3)CC2)C1", "note": "[Example 92, 2-[1-(ethylsulfonyl)-3-(4-{[(1R,2S)-2-phenylcyclopropyl]amino}piperidin-1-yl)azetidin-3-yl]ethanol]", "IC50": "≤ 100"}
{"smiles": "CS(=O)(=O)N1CC(CCO)(N2CCC(N[C@@H]3C[C@H]3c3ccccc3)CC2)C1", "note": "[Example 93, 2-[1-(methylsulfonyl)-3-(4-{[(1R,2S)-2-phenylcyclopropyl]amino}piperidin-1-yl)azetidin-3-yl]ethanol]", "IC50": "≤ 100"}
{"smiles": "COC(=O)N1CC(CC(=O)N(C)C)(N2CCC(N[C@@H]3C[C@H]3c3ccccc3)CC2)C1", "note": "[Example 94, methyl 3-[2-(dimethylamino)-2-oxoethyl]-3-(4-{[(1R,2S)-2-phenylcyclopropyl]amino}piperidin-1-yl)azetidine-1-carboxylate]", "IC50": "≤ 100"}
{"smiles": "CNC(=O)CC1(N2CCC(N[C@@H]3C[C@H]3c3ccccc3)CC2)CN(C(=O)OC)C1", "note": "[Example 95, methyl 3-[2-(methylamino)-2-oxoethyl]-3-(4-{[(1R,2S)-2-phenylcyclopropyl]amino}piperidin-1-yl)azetidine-1-carboxylate]", "IC50": "≤ 100"}
{"smiles": "CN(C)C(=O)CC1(N2CCC(N[C@@H]3C[C@H]3c3ccccc3)CC2)CN(C(=O)N(C)C)C1", "note": "[Example 96, 3-[2-(dimethylamino)-2-oxoethyl]-N,N-dimethyl-3-(4-{[(1R,2S)-2-phenylcyclopropyl]amino}piperidin-1-yl)azetidine-1-carboxamide]", "IC50": "≤ 100"}
{"smiles": "CNC(=O)CC1(N2CCC(N[C@@H]3C[C@H]3c3ccccc3)CC2)CN(C(=O)N(C)C)C1", "note": "[Example 97, N,N-dimethyl-3-[2-(methylamino)-2-oxoethyl]-3-(4-{[(1R,2S)-2-phenylcyclopropyl]amino}piperidin-1-yl)azetidine-1-carboxamide]", "IC50": "≤ 100"}
{"smiles": "Cn1cc(N2CC(CC#N)(N3CCC(N[C@@H]4C[C@H]4c4ccccc4)CC3)C2)cn1", "note": "[Example 98, [1-(1-methyl-1H-pyrazol-4-yl)-3-(4-{[(1R,2S)-2-phenylcyclopropyl]amino}piperidin-1-yl)azetidin-3-yl]acetonitrile]", "IC50": "≤ 100"}
{"smiles": "N#CCC1(N2CCC(N[C@@H]3C[C@H]3c3ccccc3)CC2)CN(C(=O)OC2CCOC2)C1", "note": "(stereo partly drawn) [Example 99, tetrahydrofuran-3-yl 3-(cyanomethyl)-3-(4-{[(1R,2S)-2-phenylcyclopropyl]amino}piperidin-1-yl)azetidine-1-carboxylate]", "IC50": "≤ 100"}
{"smiles": "Cn1cc(S(=O)(=O)N2CC(CC#N)(N3CCC(N[C@@H]4C[C@H]4c4ccccc4)CC3)C2)cn1", "note": "[Example 100, [1-[(1-methyl-1H-pyrazol-4-yl)sulfonyl]-3-(4-{[(1R,2S)-2-phenylcyclopropyl]amino}piperidin-1-yl)azetidin-3-yl]acetonitrile]", "IC50": "≤ 100"}
{"smiles": "CS(=O)(=O)N1CC(CC#N)(N2CCC(N[C@@H]3C[C@H]3c3ccc(F)cc3)CC2)C1", "note": "[Example 101, [3-(4-{[(1R,2S)-2-(4-fluorophenyl)cyclopropyl]amino}piperidin-1-yl)-1-(methylsulfonyl)azetidin-3-yl]acetonitrile]", "IC50": "≤ 100"}
{"smiles": "N#CCC1(N2CCC(N[C@@H]3C[C@H]3c3ccc(F)cc3)CC2)CN(S(N)(=O)=O)C1", "note": "[Example 102, 3-(cyanomethyl)-3-(4-{[(1R,2S)-2-(4-fluorophenyl)cyclopropyl]amino}piperidin-1-yl)azetidine-1-sulfonamide]", "IC50": "≤ 100"}
{"smiles": "O=C(O)CC1(N2CCC(CN[C@@H]3C[C@H]3c3ccccc3)CC2)CCC1", "note": "[Example 105, {1-[4-({[(1R,2S)-2-phenylcyclopropyl]amino}methyl)piperidin-1-yl]cyclobutyl}acetic acid]", "IC50": "≤ 100"}
{"smiles": "N#CCC1(N2CCC(N[C@@H]3C[C@H]3c3ccccc3)CC2)CN(C2CC(O)C2)C1", "note": "(stereo partly drawn) [Example 106, [1-(3-hydroxycyclobutyl)-3-(4-{[(1R,2S)-2-phenylcyclopropyl]amino}piperidin-1-yl)azetidin-3-yl]acetonitrile]", "IC50": "≤ 100"}
{"smiles": "N#CCC1(N2CCC(N[C@@H]3C[C@H]3c3ccccc3)CC2)CN(C(=O)C2CCCO2)C1", "note": "(stereo partly drawn) [Example 107, 2-(3-(4-(((1R,2S)-2-phenylcyclopropyl)amino)piperidin-1-yl)-1-(tetrahydrofuran-2-carbonyl)azetidin-3-yl)acetonitrile]", "IC50": "≤ 100"}
{"smiles": "N#CCC1(N2CCC(N[C@@H]3C[C@H]3c3ccccc3)CC2)CN(C(=O)C2CCOC2)C1", "note": "(stereo partly drawn) [Example 108, [3-(4-{[(1R,2S)-2-phenylcyclopropyl]amino}piperidin-1-yl)-1-(tetrahydrofuran-3-ylcarbonyl)azetidin-3-yl]acetonitrile]", "IC50": "≤ 100"}
{"smiles": "N#CCC1(N2CCC(N[C@@H]3C[C@H]3c3ccccc3)CC2)CN(C(=O)c2cncs2)C1", "note": "[Example 109, [3-(4-{[(1R,2S)-2-phenylcyclopropyl]amino}piperidin-1-yl)-1-(1,3-thiazol-5-ylcarbonyl)azetidin-3-yl]acetonitrile]", "IC50": "≤ 100"}
{"smiles": "N#CCC1(N2CCC(N[C@@H]3C[C@H]3c3ccccc3)CC2)CN(C(=O)c2ccns2)C1", "note": "[Example 110, [1-(isothiazol-5-ylcarbonyl)-3-(4-{[(1R,2S)-2-phenylcyclopropyl]amino}piperidin-1-yl)azetidin-3-yl]acetonitrile]", "IC50": "≤ 100"}
{"smiles": "N#CCC1(N2CCC(N[C@@H]3C[C@H]3c3ccccc3)CC2)CN(C(=O)c2cnccn2)C1", "note": "[Example 111, [3-(4-{[(1R,2S)-2-phenylcyclopropyl]amino}piperidin-1-yl)-1-(pyrazin-2-ylcarbonyl)azetidin-3-yl]acetonitrile]", "IC50": "≤ 100"}
